US4466963A, “Pharmaceutical compositions” (John Wyeth & Brother Limited, priority 1982, dated 1984)

Experiments:
[1] = test system: mice pretreated with carrageenin (hot-plate response); assay: hot-plate response latency (brass hot-plate, 55° C.) of mice pretreated with carrageenin; type: in vivo; conditions: for Increase in latency (sec) cf. pre-dose control / Latency (sec) pre-dose control: ibuprofen 240, meptazinol 40, combination 240 + 40 mg/kg po; for Latency (sec) pre-dose control: pre-dose baseline of the group, SEM on the line below
Method: For example in one method used to measure the antinociceptive effects of meptazinol, ibuprofen and combinations of the two drugs, groups of 9 mice were given 0.025 ml of 2% carrageenin (in saline) sc into the plantar surface of both hind feet 3.0 hours before treatment. The latency to a distinct response following placement of the mice on a brass hot-plate (55° C.) was measured immediately prior to dosing with vehicle (0.5% hydroxypropyl-methylcellulose in water) or with drug.
The antinociceptive response at each recording time (t) was defined as the reaction time of the mouse at time t minus the reaction time at t=0 (immediately prior to dosing).
The results after dosing with vehicle, ibuprofen (240 mg/kg), meptazinol (40 mg/kg) and a combination of ibuprofen (240 mg/kg)+meptazinol (40 mg/kg) are given in Table 1 below: […]

rats (gastric erosion) = conditions: well known for non-steroidal anti-inflammatory agents; cited from earlier work
normal mice (tail flick) = assay: tail flick latency (tail immersion in water at 50° C.); type: in vivo
Method: In a further experiment groups of 10 normal mice were given meptazinol (40 mg/kg), ibuprofen (240 mg/kg), a mixture containing these doses of meptazinol and ibuprofen or the requisite volume of vehicle po immediately after measuring the latency to a distinct tail flick (following tail immersion in water at 50° C.). Tail flick latencies were measured again at 30 min intervals post dosing. As the mean pre-dose latencies of mice subjected to the tail immersion procedure were so similar to one another comparisons of the actual latencies at each recording time were made (Student's "t" test).

[2] = brain concentration of meptazinol after administration of 3H meptazinol alone or with ibuprofen; type: in vivo, mice; conditions: for brain concentration of meptazinol: meptazinol 40 mg/kg po, or meptazinol + ibuprofen 40 + 240
Method: In a further experiment the brain concentration of meptazinol was measured after administration of meptazinol alone or a combination of ibuprofen and meptazinol. Groups of mice were given meptazinol (40 mg/kg) alone or meptazinol+ibuprofen (40+240 mg/kg) po containing 25 μCi/mouse of^3 H meptazinol. Six mice from each group were decapitated at 30 min intervals after dosing. The brain of each animal was removed and after the removal of the cerebellum, pons and medulla the remainder was homogenised in 10 ml ice cold Tris buffer. This was immediately centrifuged at 20,000 rpm for 5 min then a single 1 ml aliquot of the supernatant was taken for counting.

[3] = rats given 3H meptazinol; previous studies; cited from earlier work
[4] = 30 min post dosing, *p < .02 cf vehicle, x p < .02 cf meptazinol alone
[5] = 60 min post dosing, *p < .02 cf vehicle
[6] = 90 min post dosing, x p < .02 cf meptazinol alone
[7] = 30 min post dosing, ibuprofen 240, meptazinol 40, combination 40 + 240 mg/kg po, x p < .05 cf meptazinol alone
[8] = 60 min post dosing, ibuprofen 240, meptazinol 40, combination 40 + 240 mg/kg po, xx p < .01 cf meptazinol alone
[9] = 90 min post dosing, ibuprofen 240, meptazinol 40, combination 40 + 240 mg/kg po
[10] = time 0 (pre-dose), ibuprofen 240, meptazinol 40, combination 40 + 240 mg/kg po, SEM on the line below

SMILES	Increase in latency (sec) cf. pre-dose control [1, 4]	Increase in latency (sec) cf. pre-dose control [1, 5]	Increase in latency (sec) cf. pre-dose control [1, 6]	Latency (sec) pre-dose control [1]	Latency to a distinct tail flick (normal mice (tail flick); [7])	Latency to a distinct tail flick (normal mice (tail flick); [8])	Latency to a distinct tail flick (normal mice (tail flick); [9])	Latency to a distinct tail flick (normal mice (tail flick); [10])	further results
CC(C)Cc1ccc(C(C)C(=O)O)cc1 (stereo not drawn) [Ibuprofen, 2-(4-isobutylphenyl)propionic acid]	-0.72 s	-1.56 s	-1.30 s	7.16 s	2.75 s	3.04 s	3.94 s	3.43 s	antinociceptive response ([1]; ibuprofen 240 mg/kg alone): did not produce any antinociceptive response; gastric damage (rats (gastric erosion)): induce gastric damage; effect on the tail flick latency (normal mice (tail flick); ibuprofen alone, 240 mg/kg po): did not significantly affect the tail flick latency
CCC1(c2cccc(O)c2)CCCCN(C)C1 (stereo not drawn) [Meptazinol, m-(3-ethylhexahydro-1-methyl[1H]azepin-3-yl) phenol]	4.76 s	3.00 s	1.76 s	6.41 s	4.24 s	4.85 s	4.80 s	3.43 s	brain concentration of meptazinol ([2]; 30 min post treatment, **p < .01 cf meptazinol alone, (SEM not stated) on the line below): 18.4 Counts × 1000/min/g brain; brain concentration of meptazinol ([2]; 60 min post treatment): 12.0 Counts × 1000/min/g brain; brain concentration of meptazinol ([2]; 90 min post treatment, *p < .05 cf meptazinol alone): 7.4 Counts × 1000/min/g brain; brain concentration of meptazinol ([2]; 120 min post treatment, **p < .01 cf meptazinol alone): 4.7 Counts × 1000/min/g brain; concentration of tritium in the brain cf. same dose of meptazinol with 240 mg/kg ibuprofen ([2]; meptazinol 40 mg/kg, 30, 60 and 90 min post dosing): approximately half; tritium in the brain in the form of meptazinol [3]: virtually all; Latency to a distinct tail flick (normal mice (tail flick); 30 min post dosing, meptazinol 80 mg/kg po, ***p < .0001 cf vehicle control): 6.95 s; Latency to a distinct tail flick (normal mice (tail flick); 60 min post dosing, meptazinol 80 mg/kg po, **p < .01): 6.75 s; Latency to a distinct tail flick (normal mice (tail flick); 90 min post dosing, meptazinol 80 mg/kg po, ***p < .0001 cf vehicle control): 6.37 s; antinociceptive response (tail flick) (normal mice (tail flick); meptazinol 40 mg/kg alone): did induce a significant antinociceptive response; Latency to a distinct tail flick (normal mice (tail flick); time 0 (pre-dose), meptazinol 80 mg/kg po): 3.54 s
